Assays:
[1] = target: T1, integrin αvβ3 (vitronectin receptor purified from the human placenta) (Homo sapiens, UniProt P05106+P06756); test: αvβ3 binding assay (vitronectin-vitronectin receptor binding assay); conditions: vitronectin binding to human placenta vitronectin receptor; read-out: integrin αvβ3 antagonistic activity, IC50 value
T1 construct: a vitronectin receptor (protein content: 118 μg/ml) purified from the human placenta; from tissue; host or cells: human placenta
Method: Integrin αvβ3 antagonistic activity was measured for the compounds according to the present invention in a vitronectin-vitronectin receptor binding assay system in accordance with the method of Kouns et al. (W. C. Kouns, D. Kirchhofer, P. Hadvary, A. Edenhofer, T. Weller, G. Pfenninger, H. R. Baumgartner, L. K. Jennings and B. Steiner, Blood, 80, 2539-2547 (1992)).
Specifically, a vitronectin receptor (protein content: 118 μg/ml) purified from the human placenta in accordance with the method of Pytela et al. (R. Pytela, M. D. Pierschbacher, S. Argraves, S. Suzuki, and E. Ruoslahti, Method in Enzymology, 144, 475-489 (1987)) was diluted 50 times with TBS (20 mM Tris-HCl, 150 mM NaCl, 1 mM CaCl2, 1 mM MgCl2, pH 7.4), and distributed and coated on wells (50 μl/well) of a plate (Maxisorp, Nunc, 96 well Immuno Plate). The plate was then allowed to stand at 4° C. for 1 day, washed twice with TBS (200 μl/well), and then subjected to blocking with TBS (150 μl/well) containing 1% bovine serum albumin (SIGMA) at 4° C. overnight. After washing twice with TBS (200 μl/well), 50 μl of vitronectin (CALBIOCHEM) adjusted to 0.2 μg/ml by the addition of TBS (TBS-Tween) containing 0.01% Tween-20 was mixed with 50 μl of each test compound adjusted to each concentration in wells, and a reaction was allowed to proceed at room temperature for 4 hr. After the completion of the reaction, the wells were washed five times with TBS-Tween. A solution prepared by diluting anti-vitronectin rabbit antiserum (CHEMICON) 500 times with TBS-Tween was added as a primary antibody in an amount of 50 μl/well, and a reaction was allowed to proceed at room temperature for 1.5 hr. After washing five times with 200 μl/well of TBS-Tween, a peroxidase (POD)-labeled anti-rabbit IgG antibody solution (CAPPEL) diluted 500 times with TBS-Tween was added as a secondary antibody in an amount of 50 μl/well, and a reaction was allowed to proceed at room temperature for 1.5 hr. After washing five times with TBS-Tween (200 μl/well), ABTS (2,2′-azino-bis(3-ethylbenzthiazoline-6-sulfonic acid), SIGMA) was adjusted to 1 mg/ml by the addition of a ten-fold diluted POD-buffer (ZYMED), and added in an amount of 50 μl/well, and a reaction was allowed to proceed for 5 to 10 min. A 0.1 M citric acid buffer (pH 4.3) containing 0.05% NaN3 was added in an amount of 50 μl/well to stop the reaction, followed by the measurement of the absorbance at 415 nm with a microplate reader (MTP 32, Corona Electric) (reference: 675 nm). The total binding was defined as the absorbance after a reaction using 50 μl of TBS-Tween instead of the test compound, and the non-specific binding (100% inhibition) was defined as the absorbance after a reaction using 50 μl of TBS-Tween containing 2×10^−3 M RGDS. The inhibition was calculated by the following equation: [formula]
IC50 was determined from a primary regression line of the logarithm of each concentration of the test compound and the logarithm of (100−inhibition)/inhibition.

[2] = target: GP IIb/IIIa (Homo sapiens, UniProt P05106+P08514); test: GP IIb/IIIa antagonistic activity (method of Pharmacological Test 2 in WO 94/21599); format: binding
Method: GP IIb/IIIa Antagonistic Activity and Human Platelet Aggregation Inhibitory Activity
GP IIb/IIIa antagonistic activity was measured for the compounds according to the present invention. The measurement of the GP IIb/IIIa antagonistic activity was carried out according to the method described in Pharmacological Test 2 in WO 94/21599.

[3] = tested on: human vascular smooth muscle cells adhering to immobilized human vitronectin; test: Inhibitory activity against adhesion of human vascular smooth muscle cells to vitronectin; format: cell-based; conditions: 1.5 h; human vitronectin-coated plate, 90 min
Method: Inhibitory Activity Against Adhesion of Human Vascular Smooth Muscle Cells to Vitronectin
The adhesion of human vascular smooth muscle cells =+to immobilized human vitronectin was measured in accordance with the method of Liaw et al. (Liaw L, Almeida M, Hart C E, Schwartz S M, and Giachelli C M, Circulation Research, 74 (2), 214-224 (1994)).
A Dulbecco's phosphate buffer (Dulbecco's PBS(−), Nissui Pharmaceutical Co., Ltd.) solution of human plasma-derived vitronectin (CALBIOCHEM) adjusted to a concentration of 4 μg/ml was first added to wells (50 μl/well) of a microplate (Maxisorp, Nunc), and a reaction for immobilization was allowed to proceed at 4° C. overnight. After washing twice with 150 μl of Dulbecco's phosphate buffer, a Dulbecco's phosphate buffer containing 10 mg/ml of bovine serum albumin (SIGMA) was added, followed by blocking at 37° C. for one hr. The assay plate was washed twice with 150 μl of Dulbecco's phosphate buffer.
Separately, human vascular smooth muscle cells cultivated at 37° C. under 5% carbon dioxide in a medium for vascular smooth muscle cells (Clonetics) were separated using a Dulbecco's phosphate buffer containing trypsin-EDTA (GIBCO BRL), washed with Dulbecco's phosphate buffer, and then suspended in a Dulbecco's modified Eagle's basal medium (Nissui Pharmaceutical Co., Ltd.) containing 0.1% bovine serum albumin to a concentration of 5×10^5/ml.
Next, 50 μl of a Dulbecco's modified Eagle's basal medium containing 10 mg/ml of bovine serum albumin with a medicament added thereto was added to the wells of the human vitronectin-coated assay microplate, followed by pre-cultivation under 5% carbon dioxide at 37° C. for 10 min. Thereafter, 50 μl of the medium with human vascular smooth muscle cells suspended therein was added thereto, and the plate was thoroughly stirred. A reaction was allowed to proceed under 5% carbon dioxide at 37° C. for 90 min. The reaction solution containing non-adherent cells were then removed, followed by washing three times with Dulbecco's phosphate buffer. For the adhered cells, 100 μl of a Dulbecco's phosphate buffer containing 4% paraformaldehyde (Wako Pure Chemical Industries, Ltd.) was added, and immobilization was allowed to proceed at room temperature for 10 min. Next, 100 μl of a Dulbecco's phosphate buffer containing 0.5% Toluidine Blue (Croma) and 4% paraformaldehyde was added, and staining was allowed to proceed at room temperature for 5 min, followed by thorough washing with distilled water. The inside of the wells was then air-dried, and a 1% aqueous sodium dodecylsulfate solution was then added to perform cytolysis. The absorbance of the microplate thus obtained was measured at 595 nm. […] The inhibition was calculated by the following equation. IC50 was determined from a primary regression line of the logarithm of each concentration of the test compound and the logarithm of (100−inhibition)/inhibition. [formula]

GP IIb/IIIa, sequence (P08514 32-887 limits assumed): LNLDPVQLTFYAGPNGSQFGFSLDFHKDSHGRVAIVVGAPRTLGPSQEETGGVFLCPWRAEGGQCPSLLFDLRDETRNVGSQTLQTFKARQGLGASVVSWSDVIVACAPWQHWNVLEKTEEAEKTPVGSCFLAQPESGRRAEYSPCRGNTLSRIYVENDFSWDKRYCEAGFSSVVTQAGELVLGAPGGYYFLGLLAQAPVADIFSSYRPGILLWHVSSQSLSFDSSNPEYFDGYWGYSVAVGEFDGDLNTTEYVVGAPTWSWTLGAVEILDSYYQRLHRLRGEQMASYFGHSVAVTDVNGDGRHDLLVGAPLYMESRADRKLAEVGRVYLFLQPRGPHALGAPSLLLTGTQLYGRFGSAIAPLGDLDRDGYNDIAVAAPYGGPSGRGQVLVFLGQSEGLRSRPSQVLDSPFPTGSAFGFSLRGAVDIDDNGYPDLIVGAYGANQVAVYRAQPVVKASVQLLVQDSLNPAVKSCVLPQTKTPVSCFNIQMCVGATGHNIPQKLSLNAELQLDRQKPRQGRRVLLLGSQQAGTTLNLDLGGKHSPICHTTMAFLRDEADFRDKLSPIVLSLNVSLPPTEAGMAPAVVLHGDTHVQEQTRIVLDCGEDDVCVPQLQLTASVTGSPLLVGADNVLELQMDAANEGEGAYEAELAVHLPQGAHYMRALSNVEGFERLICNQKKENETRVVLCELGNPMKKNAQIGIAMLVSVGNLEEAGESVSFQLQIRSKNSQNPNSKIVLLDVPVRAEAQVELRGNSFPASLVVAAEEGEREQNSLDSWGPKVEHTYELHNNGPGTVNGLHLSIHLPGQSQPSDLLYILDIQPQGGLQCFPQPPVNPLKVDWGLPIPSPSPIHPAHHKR
GP IIb/IIIa, sequence (P08514 891-1039 limits assumed): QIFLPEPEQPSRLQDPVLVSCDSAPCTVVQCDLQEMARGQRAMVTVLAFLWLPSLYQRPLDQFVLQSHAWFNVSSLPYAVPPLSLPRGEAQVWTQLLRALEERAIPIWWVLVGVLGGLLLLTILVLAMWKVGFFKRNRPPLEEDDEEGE
GP IIb/IIIa, sequence (P05106 27-788): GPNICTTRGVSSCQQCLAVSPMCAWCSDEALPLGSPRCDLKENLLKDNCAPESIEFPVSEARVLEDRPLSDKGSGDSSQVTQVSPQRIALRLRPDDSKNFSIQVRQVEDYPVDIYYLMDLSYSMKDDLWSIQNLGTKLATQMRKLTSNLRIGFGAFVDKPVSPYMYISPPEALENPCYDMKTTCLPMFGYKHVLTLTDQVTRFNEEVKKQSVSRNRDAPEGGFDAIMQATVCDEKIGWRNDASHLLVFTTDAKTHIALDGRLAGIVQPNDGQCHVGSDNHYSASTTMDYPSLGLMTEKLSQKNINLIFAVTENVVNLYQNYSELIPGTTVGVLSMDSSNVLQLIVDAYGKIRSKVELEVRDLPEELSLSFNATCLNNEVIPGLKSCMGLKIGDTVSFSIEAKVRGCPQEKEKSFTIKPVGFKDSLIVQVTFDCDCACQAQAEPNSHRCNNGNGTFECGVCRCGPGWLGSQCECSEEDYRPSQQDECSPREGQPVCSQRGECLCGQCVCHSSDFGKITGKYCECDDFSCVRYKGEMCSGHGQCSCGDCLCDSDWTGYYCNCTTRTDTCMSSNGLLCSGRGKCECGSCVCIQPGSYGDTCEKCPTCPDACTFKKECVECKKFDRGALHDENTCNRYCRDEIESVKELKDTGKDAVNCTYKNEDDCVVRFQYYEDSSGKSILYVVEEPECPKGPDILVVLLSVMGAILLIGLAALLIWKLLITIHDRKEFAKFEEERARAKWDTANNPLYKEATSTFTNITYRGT
T1 sequence (P06756 31-889 limits assumed): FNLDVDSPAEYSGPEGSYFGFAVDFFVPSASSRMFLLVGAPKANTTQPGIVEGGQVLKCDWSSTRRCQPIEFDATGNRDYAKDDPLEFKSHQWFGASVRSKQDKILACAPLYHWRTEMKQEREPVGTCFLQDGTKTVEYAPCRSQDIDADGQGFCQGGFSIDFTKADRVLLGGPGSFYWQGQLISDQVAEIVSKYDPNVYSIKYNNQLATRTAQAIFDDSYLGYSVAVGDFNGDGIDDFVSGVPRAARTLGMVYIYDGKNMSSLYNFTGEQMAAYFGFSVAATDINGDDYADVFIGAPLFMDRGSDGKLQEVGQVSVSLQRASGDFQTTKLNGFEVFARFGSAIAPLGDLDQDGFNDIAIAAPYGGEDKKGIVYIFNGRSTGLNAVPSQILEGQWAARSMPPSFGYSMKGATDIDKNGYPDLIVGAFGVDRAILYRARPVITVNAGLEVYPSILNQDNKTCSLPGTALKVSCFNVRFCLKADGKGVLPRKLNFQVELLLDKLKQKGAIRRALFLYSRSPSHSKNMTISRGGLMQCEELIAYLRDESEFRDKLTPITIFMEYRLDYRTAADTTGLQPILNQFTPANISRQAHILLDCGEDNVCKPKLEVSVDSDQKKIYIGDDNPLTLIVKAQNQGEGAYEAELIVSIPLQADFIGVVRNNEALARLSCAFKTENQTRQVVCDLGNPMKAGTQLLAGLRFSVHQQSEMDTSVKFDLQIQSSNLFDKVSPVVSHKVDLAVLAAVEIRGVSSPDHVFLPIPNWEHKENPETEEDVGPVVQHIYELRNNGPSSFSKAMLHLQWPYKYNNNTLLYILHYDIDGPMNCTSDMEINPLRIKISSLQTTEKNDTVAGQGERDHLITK
T1 sequence (P06756 891-1048 limits assumed): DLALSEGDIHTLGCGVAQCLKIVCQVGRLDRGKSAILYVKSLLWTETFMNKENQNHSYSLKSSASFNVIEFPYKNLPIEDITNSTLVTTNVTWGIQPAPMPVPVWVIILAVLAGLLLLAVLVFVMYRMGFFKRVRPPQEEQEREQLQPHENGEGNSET
T1 sequence (P05106 27-788): as the sequence (P05106 27-788) above

| SMILES | IC50 [1] [nM] | IC50 [2] [nM] | IC50 [3] [nM] |
| --- | --- | --- | --- |
| Cc1cc(C)c(S(=O)(=O)N[C@@H](CNC(=O)c2ccc(N3CCC(Nc4nc5ccccc5[nH]4)CC3)cc2)C(=O)O)c(C)c1 [Example 31, 3-[4-{4-(1H-Benzimidazol-2-ylamino)piperidin-1-yl}benzoylamino]-(2S)-{(2,4,6-trimethylbenzenesulfonyl)amino}propionic acid] | ≤ 1 | ≤ 1 |  |
| O=C(NC[C@H](NS(=O)(=O)c1ccc(F)cc1)C(=O)O)c1ccc(N2CCC(Nc3nc4ccccc4[nH]3)CC2)cc1 [Example 33, 3-[4-{4-(1H-Benzimidazol-2-ylamino)piperidin-1-yl}benzoylamino]-(2S)-{(4-fluoro-benzenesulfonyl)amino}propionic acid] | ≤ 1 | ≤ 1 |  |
| O=C(NC[C@H](NS(=O)(=O)c1ccc([N+](=O)[O-])cc1)C(=O)O)c1ccc(N2CCC(Nc3nc4ccccc4[nH]3)CC2)cc1 [Example 35, 3-[4-{4-(1H-Benzimidazol-2-ylamino)piperidin-1-yl}benzoylamino]-(2S)-{(4-nitro-benzenesulfonyl)amino}propionic acid] | ≤ 1 | ≤ 1 | ≤ 70 |
| Nc1ccc(S(=O)(=O)N[C@@H](CNC(=O)c2ccc(N3CCC(Nc4nc5ccccc5[nH]4)CC3)cc2)C(=O)O)cc1 [Example 36, (2S)-(4-Aminobenzenesulfonyl)amino-3-[4-{4-(1H-benzimidazol-2-ylamino)piperidin-1-yl}benzoylamino]-propionic acid] | ≤ 1 | ≤ 1 |  |
| O=C(NC[C@H](NS(=O)(=O)c1ccccc1)C(=O)O)c1ccc(N2CCC(Nc3nc4ncccc4[nH]3)CC2)cc1 [Example 38, (2S)-Benzenesulfonylamino-3-[4-[4-{(1H-imidazo[4,5-b]pyridin-2-yl)amino}piperidin-1-yl]benzoyl-amino]propionic acid] | ≤ 1 | ≤ 1 |  |
| O=C(NC[C@H](NS(=O)(=O)c1ccccc1)C(=O)O)c1ccc(N2CCC(NC3=NCCCN3)CC2)c(F)c1F [Example 57, (2S)-Benzenesulfonylamino-3-[2,3-difluoro-4-{4-(1,4,5,6-tetrahydropyrimidin-2-ylamino)piperidin-1yl}benzoylamino]propionic acid] | ≤ 1 | ≤ 1 | ≤ 70 |
| COc1ccc(S(=O)(=O)N[C@@H](CNC(=O)c2ccc(N3CCC(NC4=NCCCN4)CC3)c(F)c2)C(=O)O)cc1 [Example 73, 3-[3-Fluoro-4-{4-(1,4,5,6-tetrahydropyrimidin-2-ylamino)piperidin-1-yl}benzoyl-amino]-(2S)-{(4-methoxybenzenesulfonyl)amino}propionic acid] | ≤ 1 | ≤ 1 |  |
| O=C(NC[C@H](NS(=O)(=O)c1ccc(O)cc1)C(=O)O)c1ccc(N2CCC(NC3=NCCCN3)CC2)c(F)c1 [Example 75, 3-[3-Fluoro-4-{4-(1,4,5,6-tetrahydropyrimidin-2-ylamino)piperidin-1-yl}benzoyl-amino]-(2S)-{(4-hydroxybenzenesulfonyl)amino}propionic acid] | ≤ 1 | ≤ 1 | ≤ 70 |
| O=C(O)c1ccc(S(=O)(=O)N[C@@H](CNC(=O)c2ccc(N3CCC(N=C4NCCCN4)CC3)c(F)c2)C(=O)O)cc1 [Example 78, (2S)-(4-Carboxybenzenesulfonyl)amino-3-[3-fluoro-4-{4-(1.4.5.6-tetrahydropyrimidin-2-ylamino)-piperidin-1-yl}benzoylamino]propionic acid] | ≤ 1 | ≤ 1 |  |
| COc1cc(C(=O)NC[C@H](NS(=O)(=O)c2ccccc2)C(=O)O)ccc1N1CCC(NC2=NCCCN2)CC1 [Example 93, (2S)-Benzenesulfonylamino-3-[3-methoxy-4-{4-(1,4,5,6tetrahydropyrimidin-2-ylamino)piperidin-1-yl}-benzoylamino]propionic acid] | ≤ 1 | ≤ 1 | ≤ 70 |
| O=C(NC[C@H](NS(=O)(=O)c1ccccc1)C(=O)O)c1ccc(N2CCC(N=C3NCCCN3)CC2)c(O)c1 [Example 95, (2S)-Benzenesulfonylamino-3-[3-hydroxy-4-{4-(1,4,5,6tetrahydropyrimidin-2-ylamino)piperidin-1-yl}-benzoylamino]propionic acid] | ≤ 1 | ≤ 1 |  |
